# In ChEMBL document CHEMBL1150035, “Potent, non-peptidic oxytocin receptor antagonists from a natural source” (Bioorg Med Chem Lett, 1993):
# Experiments:
# Oxytocin receptor = target: T1, Oxytocin receptor (Rattus norvegicus, UniProt P70536); assay: Compound was tested for its ability to inhibit binding of Oxytocin to its Oxytocin receptor in rat uterine tissue
# T1 sequence (P70536 whole entry): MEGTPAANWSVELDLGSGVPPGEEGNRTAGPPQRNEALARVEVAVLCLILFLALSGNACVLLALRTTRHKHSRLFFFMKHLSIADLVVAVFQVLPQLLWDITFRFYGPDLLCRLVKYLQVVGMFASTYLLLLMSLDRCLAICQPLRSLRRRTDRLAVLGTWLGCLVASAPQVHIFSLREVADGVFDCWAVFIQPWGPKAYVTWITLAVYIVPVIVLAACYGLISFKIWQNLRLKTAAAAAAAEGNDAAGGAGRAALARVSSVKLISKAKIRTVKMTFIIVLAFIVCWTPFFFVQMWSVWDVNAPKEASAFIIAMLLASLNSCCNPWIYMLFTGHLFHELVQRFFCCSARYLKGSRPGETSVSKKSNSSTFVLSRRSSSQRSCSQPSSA
# [1] = Compound was tested for its ability to inhibit binding of arginine vasopressin to Vasopressin receptor (V1 subtype)
IC50 (Oxytocin receptor) [µM],IC50 [1] [µM],Structure (SMILES)
5,–,COc1c([C@H](CC(C)C)OC(C)=O)ccc2c1C(=O)OCc1cc(C)cc(OC(C)=O)c1O2
> 100,–,COc1c([C@H](CC(C)C)OC(C)=O)ccc2c1C(=O)Oc1cc(C)cc(C=O)c1O2
21,> 100,COc1cc(C)cc2c1Oc1ccc([C@H](CC(C)C)OC(C)=O)c(OC)c1C(=O)OC2
8.4,> 100,COc1c([C@H](CC(C)C)OC(C)=O)ccc2c1C(=O)OCc1cc(C)cc(O)c1O2
> 100,–,COc1cc(C)cc2c1Oc1ccc([C@@H](O)CC(C)C)c(OC)c1C(=O)OC2
> 100,–,COc1c(C(=O)CC(C)C)ccc2c1C(=O)OCc1cc(C)cc(O)c1O2
67,–,COc1c([C@@H](O)CC(C)C)ccc2c1C(=O)OCc1cc(C)cc(O)c1O2 [PENICILLIDE]
